{
  "source": "patent US20250057853A1",
  "about": "(priority 2023, published 2025)",
  "conditions": "Cohort 5: 4.0 g/kg via 15-minutes IV infusion",
  "data": [
    {"smiles": "Br.CN1[C@@H]2C[C@@H](OC(=O)[C@H](CO)c3ccccc3)C[C@H]1[C@@H]1O[C@@H]12.O.O.O", "note": "[scopolamine HBr, scopolamine hydrobromide trihydrate]", "values": [
      {"measurement": "Number of TEAEs", "value": 25, "unit": "AEs"}
    ]}
  ]
}
